Laboratory results reported in ChEMBL document CHEMBL4825757, “Optimization of 4,6-Disubstituted Pyrido[3,2-d]pyrimidines as Dual MNK/PIM Inhibitors to Inhibit Leukemia Cell Growth” (J Med Chem, 2021).
Activity calls are given as the source filed them. No cut-off for these calls is given here.

Assays:
[1] = biological target: MAP kinase-interacting serine/threonine-protein kinase 1 (Homo sapiens, UniProt Q9BUB5); assay: Inhibition of MKN1 (unknown origin) at 1 uM in presence of ATP by HTRF assay
Chain of MAP kinase-interacting serine/threonine-protein kinase 1 (Q9BUB5 whole entry, looked up): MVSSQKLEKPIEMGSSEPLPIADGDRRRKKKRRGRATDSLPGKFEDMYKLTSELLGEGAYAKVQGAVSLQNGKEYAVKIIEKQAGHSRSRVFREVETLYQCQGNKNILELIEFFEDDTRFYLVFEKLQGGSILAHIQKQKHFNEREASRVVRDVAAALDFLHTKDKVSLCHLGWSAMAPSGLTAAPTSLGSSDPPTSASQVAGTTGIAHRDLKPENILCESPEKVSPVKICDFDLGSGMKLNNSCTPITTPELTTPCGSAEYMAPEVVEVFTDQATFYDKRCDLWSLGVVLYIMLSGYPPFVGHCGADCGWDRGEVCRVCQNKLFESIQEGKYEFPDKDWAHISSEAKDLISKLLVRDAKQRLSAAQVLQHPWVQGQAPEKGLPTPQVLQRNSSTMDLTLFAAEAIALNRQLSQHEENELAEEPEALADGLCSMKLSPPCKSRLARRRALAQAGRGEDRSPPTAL

MOLM-13 [2] = assay: Downregulation of c-myc levels in human MOLM-13 cells at 20 to 40 uM incubated for 12 hrs by western blot analysis; type: functional, cell-based; settings: dose 20-40 µM
MOLM-13 [3] = assay: Induction of cell cycle arrest in human MOLM-13 cells assessed as G1 phase at 20 uM incubated for 12 hr by propidium iodide based flow cytometry analysis (Rvb= 51.29%); type: functional
MOLM-13 [4] = assay: Antiproliferative activity against human MOLM13 cells assessed as reduction of cell viability incubated for 72 hrs by trypan blue staining based cell counting analysis; type: functional
MOLM-13 [5] = assay: Induction of apoptosis in human MOLM-13 cells assessed as live cells at 20 uM incubated for 12 hrs by annexin-V and propidium iodide staining based flow cytometry analysis (reference value: 91.49%); type: functional
[6] = biological target: T1, Serine/threonine-protein kinase PIM (Homo sapiens) (UniProt P11309+Q9P1W9+Q86V86); assay: Inhibition of PIM in human MOLM-13 cells assessed as reduction in phosphorylated 4EBP1 at 20 to 40 uM incubated for 12 hrs by western blot analysis; type: cell-based; settings: dose 20-40 µM
T1 sequence (P11309 whole entry, looked up): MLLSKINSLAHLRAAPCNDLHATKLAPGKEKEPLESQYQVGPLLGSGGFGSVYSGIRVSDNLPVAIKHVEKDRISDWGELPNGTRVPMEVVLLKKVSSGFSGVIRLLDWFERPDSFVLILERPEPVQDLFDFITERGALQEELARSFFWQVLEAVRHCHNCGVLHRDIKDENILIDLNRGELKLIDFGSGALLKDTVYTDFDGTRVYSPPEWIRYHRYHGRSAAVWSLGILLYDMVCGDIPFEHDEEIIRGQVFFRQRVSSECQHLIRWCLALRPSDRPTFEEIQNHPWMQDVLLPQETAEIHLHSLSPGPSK
T1 sequence (Q9P1W9 whole entry, looked up): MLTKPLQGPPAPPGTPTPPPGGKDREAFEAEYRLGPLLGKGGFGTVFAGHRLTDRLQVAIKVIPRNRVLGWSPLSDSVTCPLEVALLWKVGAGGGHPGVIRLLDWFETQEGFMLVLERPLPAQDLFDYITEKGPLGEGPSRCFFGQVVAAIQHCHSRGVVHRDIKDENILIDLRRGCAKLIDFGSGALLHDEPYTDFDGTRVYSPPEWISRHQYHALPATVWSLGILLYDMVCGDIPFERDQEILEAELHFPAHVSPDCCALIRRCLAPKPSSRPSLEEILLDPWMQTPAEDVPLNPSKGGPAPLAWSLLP

MOLM-13 [7] = assay: Downregulation of mcl-1 levels in human MOLM-13 cells at 20 to 40 uM incubated for 12 hrs by western blot analysis; type: functional, cell-based; settings: dose 20-40 µM
[8] = biological target: T1, Serine/threonine-protein kinase PIM (Homo sapiens); assay: Inhibition of PIM in human MOLM-13 cells assessed as reduction of BAD phosphorylation at 20 to 40 uM incubated for 12 hrs by western blot analysis; type: cell-based; settings: dose 20-40 µM
MOLM-13 [9] = assay: Induction of apoptosis in human MOLM-13 cells assessed as necrotic cells at 40 uM incubated for 12 hrs by annexin-V and propidium iodide staining based flow cytometry analysis (reference value: 0.06%); type: functional
MOLM-13 [10] = assay: Induction of apoptosis in human MOLM-13 cells assessed as late apoptotic cells at 20 uM incubated for 12 hrs by annexin-V and propidium iodide staining based flow cytometry analysis (reference value: 3.03%); type: functional
MOLM-13 [11] = assay: Induction of apoptosis in human MOLM-13 cells assessed as live cells at 40 uM incubated for 12 hrs by annexin-V and propidium iodide staining based flow cytometry analysis (reference value: 91.49%); type: functional
MOLM-13 [12] = assay: Induction of apoptosis in human MOLM-13 cells assessed as late apoptotic cells at 40 uM incubated for 12 hrs by annexin-V and propidium iodide staining based flow cytometry analysis (reference value: 3.03%); type: functional
MOLM-13 [13] = assay: Induction of cell cycle arrest in human MOLM-13 cells assessed as sub-G1 phase at 40 uM incubated for 12 hr by propidium iodide based flow cytometry analysis (Rvb= 4.78%); type: functional
MOLM-13 [14] = assay: Induction of cell cycle arrest in human MOLM-13 cells assessed as sub-G1 phase at 20 uM incubated for 12 hr by propidium iodide based flow cytometry analysis (Rvb= 4.78%); type: functional
MOLM-13 [15] = assay: Induction of apoptosis in human MOLM-13 cells assessed as early apoptotic cells at 40 uM incubated for 12 hrs by annexin-V and propidium iodide staining based flow cytometry analysis (reference value: 5.40%); type: functional
MOLM-13 [16] = assay: Induction of cell cycle arrest in human MOLM-13 cells assessed as G1 phase at 40 uM incubated for 12 hr by propidium iodide based flow cytometry analysis (Rvb= 51.29%); type: functional
K562 = assay: Antiproliferative activity against human K562 cells assessed as reduction of cell viability incubated for 72 hrs by trypan blue staining based cell counting analysis; type: functional
MOLM-13 [17] = assay: Downregulation of cyclin-D1 levels in human MOLM-13 cells at 20 to 40 uM incubated for 12 hrs by western blot analysis; type: functional, cell-based; settings: dose 20-40 µM
MOLM-13 [18] = assay: Induction of apoptosis in human MOLM-13 cells assessed as necrotic cells at 20 uM incubated for 12 hrs by annexin-V and propidium iodide staining based flow cytometry analysis (reference value: 0.06%); type: functional
HL-60 = assay: Antiproliferative activity against human HL-60 cells assessed as reduction of cell viability incubated for 72 hrs by trypan blue staining based cell counting analysis; type: functional
MOLM-13 [19] = assay: Induction of apoptosis in human MOLM-13 cells assessed as early apoptotic cells at 20 uM incubated for 12 hrs by annexin-V and propidium iodide staining based flow cytometry analysis (reference value: 5.40%); type: functional

For `Nc1ncnc2[nH]nc(Nc3ccc(F)cc3)c12`, the inhibition [1] was 78%, the Activity (MOLM-13 [2]) was “Active” and the Activity (MOLM-13 [3]) was 65.2%. For the same compound, the GI50 (MOLM-13 [4]) was 9.88 µM, the Activity (MOLM-13 [5]) was 86.89% and the inhibition [6] was “Active”. For the same compound, the Activity (MOLM-13 [7]) was “Active”, the inhibition [8] was “inactive” and the Activity (MOLM-13 [9]) was 0.18%. It also gave an Activity (MOLM-13 [10]) of 3.05%, an Activity (MOLM-13 [11]) of 83.9% and an Activity (MOLM-13 [12]) of 2.73%. For the same compound, the Activity (MOLM-13 [13]) was 12.28%, the Activity (MOLM-13 [14]) was 8.3% and the Activity (MOLM-13 [15]) was 13.19%. The Activity (MOLM-13 [16]) was 62.49%, the GI50 (K562) was 28.8 µM and the Activity (MOLM-13 [17]) was “Active”. It also gave an Activity (MOLM-13 [18]) of 0.04%, a GI50 (HL-60) of 7.26 µM and an Activity (MOLM-13 [19]) of 9.93%.
